Measured values from patent US12416009B2, “Methods and compositions for the modification of plants” (Flagship Pioneering Innovations VI, LLC, priority 2018, dated 2025).

Key:
[1] = system: Arabidopsis thaliana seedlings; assay: Cytotoxicity of free DOX and DOX-loaded PMPs in Arabidopsis thaliana seedlings; format: in vivo, Arabidopsis thaliana Col-0; details: 100 μM DOX dose; 24 hours exposure, then 3 days; 7-day old seedlings
Protocol: Grapefruit PMPs were produced and loaded with doxorubicin as described in Examples 16a and 16b. Wild type Arabidopsis thaliana Col-0 seeds were obtained from the ABRC, surface sterilized with 50% bleach, stratified for 1-3 d at 4° C., and germinated on half-strength (0.5×) Murashige and Skoog (MS) medium supplemented with 0.5% sucrose, 2.5 mM MES, pH 5.6, containing 0.8% agar, with a photoperiod of 16 h light 23° C./8 h dark 21° C.
To test whether PMPs can deliver a small molecule cargo in planta, 7-day old Arabidopsis thaliana seedlings were transferred to 0.5× liquid MS medium in a 24 well plate (1 seedling per well), and treated with free DOX or DOX-loaded PMPs with an encapsulated DOX dose of 0 (negative control), 25 μM, 50 μM and 100 μM. The plate was covered with aluminum foil and incubated for 24 hours. DOX-containing medium was removed, the seedlings were washed two times with ½×MS medium, and fresh medium was added. Seedlings were incubated for an additional 3 days under a normal photoperiod (16 h light 23° C./8 h dark 21° C.). Next, seedlings were removed from the plate and towel-dried for imaging and cytotoxicity was assessed by analyzing leaf vigor, leaf color and root length. Cytotoxicity is defined by shortening of the roots, loss of leaf vigor, and leaf discoloration (yellow instead of green) when compared to an untreated seedling control.

plants = details: Culiarez-Mac et al, Plant Growth Regulation 1987; cited from earlier work
[2] = system: Triticum aestivum cell line; assay: Uptake of AF488-labeled lemon PMPs by plant cells (epifluorescence microscopy); format: cell-based; details: 1×10^12 AF488-PMPs/mL, 2 hours at 24° C.
Protocol: (§1) Plant cell lines were purchased from the Deutsche Sammlung von Mikroorganismen und Zellkulturen (DSMZ) (Glycine max, #PC-1026; Triticum aestivum, #PC-998) and ABRC (Zea mays, Black Mexican sweet (BMS), and were grown in baffled vented 250 mL flasks in the dark, at 24° C. with agitation (110 rpm). Glycine max and Triticum aestivum were grown in 3.2 g/L Gamborg's B-5 Basal Medium with Minimal Organics supplemented (G5893, Millipore Sigma) pH 5.5, supplemented with 2% sucrose, and 2 mg/L 2,4-dichlorophenoxyacetic acid (2,4D) (D7299, Millipore Sigma) according to the supplier's instructions. BMS cells were grown in Murashige and Skoog basal medium pH 5.8, containing 4.3 g/L Murashige and Skoog Basal Salt Mixture (Sigma M5524), 2% sucrose (S0389, Millipore Sigma), 1×MS vitamin solution (M3900, Millipore Sigma), 2 mg/L 2,4-dichlorophenoxyacetic acid (D7299, Millipore Sigma) and 250 ug/L thiamine HCL (V-014, Millipore Sigma).
(§2) For treatment with AF488-PMPs, 5 mL of the cell suspensions was taken to determine the percent Pack Cell Volume (PCV). The PCV is defined as the volume of cells divided by the total volume of the cell culture aliquot, and expressed as a percentage. Cells were centrifuged for 5 min at 3900 rpm, and the volume of the cell pellet was determined. The % PCV for BMS, Glycine max, and Triticum aestivum were 20%, 15%, and 18%, respectively. For the uptake experiment, the % PCV of the cultures was adjusted to 2%, by diluting cells in their appropriate medium. Next, 125 μl of the plant cell suspensions was added to a 24 well plate, and duplicate samples were treated with 125 μl MES buffer (200 mM MES+10 mM NaCl, pH6) alone (negative control), AF488 dye only (dye only control) or a final concentration of 1×10^12 AF488-PMPs/mL diluted in MES buffer to 125 μl. Cells were incubated for 2 hours at 24° C. in the dark, washed three times with 1 mL MES buffer to remove AF488-PMPs or free dye that had not been taken up, and resuspended in 300 μL of MES buffer for imaging on an epifluorescence microscope (EVOS FL Auto 2, Invitrogen).

[3] = system: Zea mays Black Mexican sweet (BMS) cells; assay: as above; format: cell-based; details: 1×10^12 AF488-PMPs/mL, 2 hours at 24° C.
Protocol: as §1, §2

Glycine max cell line = assay: as above; format: cell-based; details: 1×10^12 AF488-PMPs/mL, 2 hours at 24° C.
Protocol: as §1, §2

Molecule | cytotoxicity (root shortening, loss of leaf vigor, leaf discoloration) [1] | cytotoxicity in plants (plants) | AF488 fluorescence signal in cells (PMP uptake) [2] | AF488 fluorescence signal in cells (PMP uptake) [3] | AF488 fluorescence signal in cells (PMP uptake) (Glycine max cell line)
COc1cccc2c1C(=O)c1c(O)c3c(c(O)c1C2=O)C[C@@](O)(C(=O)CO)C[C@@H]3O[C@H]1C[C@H](N)[C@H](O)[C@H](C)O1 [free DOX, doxorubicin] | root shortening and leaf discoloration | cytotoxic in plants | – | – | –
Alexa Fluor 488® NHS Ester [AF488 dye only] | – | – | no detectable fluorescence | no detectable fluorescence | no detectable fluorescence
